Reference: ChEMBL document CHEMBL3132777, “Novel proteinprotein interaction inhibitor of Nrf2Keap1 discovered by structure-based virtual screening” (Medchemcomm, 2014)
pEC50: −log10 of the molar value. Calls of active or inactive are those of the source. No cut-off for these calls is given here.

Experiments:
[1] = system: HepG2; assay: Induction of Nrf2 transcription activity in human HepG2-ARE-C8 cells assessed as ARE gene expression at 20 to 100 uM after 24 hrs by cell-based luciferase reporter assay; format: functional
[2] = system: HepG2; assay: Induction of Nrf2 transcription activity in human HepG2-ARE-C8 cells assessed as ARE gene expression at 20 to 100 uM after 12 hrs by cell-based luciferase reporter assay; format: functional
[3] = system: HepG2; assay: Induction of Nrf2 transcription activity in human HepG2-ARE-C8 cells assessed as ARE gene expression after 12 to 24 hrs by cell-based luciferase reporter assay; format: functional
[4] = system: HepG2; assay: Cytotoxicity against human HepG2-ARE-C8 cells at 200 uM; format: cell-based; details: hepg2, 200 µM
[5] = system: HepG2; assay: Induction of Nrf2 transcription activity in human HepG2-ARE-C8 cells assessed as increase in ARE gene expression at 200 uM by cell-based luciferase reporter assay relative to untreated control; format: functional
[6] = biological target: Kelch-like ECH-associated protein 1 (Homo sapiens, UniProt Q14145); assay: Inhibition of FITC-9mer Nrf2 peptide amide/Keap1 Kelch domain (unknown origin) interaction after 30 mins by fluorescence polarization assay
Kelch-like ECH-associated protein 1, sequence (Q14145 whole entry, the tested form may be a part): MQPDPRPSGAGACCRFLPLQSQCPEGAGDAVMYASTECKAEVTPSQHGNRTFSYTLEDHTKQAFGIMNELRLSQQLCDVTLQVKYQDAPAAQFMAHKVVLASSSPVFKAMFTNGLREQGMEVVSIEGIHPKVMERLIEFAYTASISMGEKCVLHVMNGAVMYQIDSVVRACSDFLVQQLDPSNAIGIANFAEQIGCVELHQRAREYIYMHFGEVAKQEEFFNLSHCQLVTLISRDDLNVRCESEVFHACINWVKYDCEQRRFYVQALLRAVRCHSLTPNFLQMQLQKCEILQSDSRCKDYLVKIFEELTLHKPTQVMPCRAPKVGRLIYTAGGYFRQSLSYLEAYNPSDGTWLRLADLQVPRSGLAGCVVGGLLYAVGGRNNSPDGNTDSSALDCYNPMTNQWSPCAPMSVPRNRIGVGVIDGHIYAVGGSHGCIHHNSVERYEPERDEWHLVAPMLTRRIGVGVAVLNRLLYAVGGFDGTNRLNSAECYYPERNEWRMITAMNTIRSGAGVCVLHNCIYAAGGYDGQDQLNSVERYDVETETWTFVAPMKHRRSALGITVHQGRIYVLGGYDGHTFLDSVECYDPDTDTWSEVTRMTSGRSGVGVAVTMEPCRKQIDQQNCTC

## CC(C)(C)c1cc(O)ccc1O
[1]
  Activity: inactive
[2]
  Activity: Active

## O=C(N/N=C/c1ccc(-c2ccc(C(=O)O)cc2)o1)N/N=C/c1ccc(-c2ccc(C(=O)O)cc2)o1
[3]
  Activity: Dose-dependent effect
[4]
  Activity: Non-toxic
[5]
  fold change (FC): 10
[6]
  pEC50: 5.01
